According to the NIST ThermoML archive (doi:10.1016/j.jct.2016.07.021):
± gives the expanded uncertainty stated by the source.

Test: activity coefficient (dimensionless); of the first substance listed, at infinite dilution; xn = mol fraction of the nth substance listed
Conditions: 101.33 kPa, Liquid, Chromatography, x1 = 0

Cc1cccc(C)c1 [1,3-dimethylbenzene] + CCCCCCn1cc[n+](C)c1C.O=S(=O)([N-]S(=O)(=O)C(F)(F)F)C(F)(F)F
activity coefficient (313.15 K): 1.34 ± 0.14 | activity coefficient (323.15 K): 1.38 ± 0.14 | activity coefficient (333.15 K): 1.41 ± 0.15 | activity coefficient (343.15 K): 1.44 ± 0.15 | activity coefficient (353.15 K): 1.47 ± 0.15

CCCCCCC [heptane] + CCCCCCn1cc[n+](C)c1C.O=S(=O)([N-]S(=O)(=O)C(F)(F)F)C(F)(F)F
activity coefficient (313.15 K): 10.2 ± 1.1 | activity coefficient (323.15 K): 9.79 ± 1 | activity coefficient (333.15 K): 9.47 ± 1 | activity coefficient (343.15 K): 9.2 ± 0.97 | activity coefficient (353.15 K): 8.83 ± 0.93

ClCCl [dichloromethane] + CCCCCCn1cc[n+](C)c1C.O=S(=O)([N-]S(=O)(=O)C(F)(F)F)C(F)(F)F
activity coefficient (313.15 K): 0.74 ± 0.08 | activity coefficient (323.15 K): 0.73 ± 0.08 | activity coefficient (333.15 K): 0.72 ± 0.08 | activity coefficient (343.15 K): 0.71 ± 0.07 | activity coefficient (353.15 K): 0.7 ± 0.07

ClC(Cl)(Cl)Cl [tetrachloromethane] + CCCCCCn1cc[n+](C)c1C.O=S(=O)([N-]S(=O)(=O)C(F)(F)F)C(F)(F)F
activity coefficient (313.15 K): 2.31 ± 0.24 | activity coefficient (323.15 K): 2.26 ± 0.24 | activity coefficient (333.15 K): 2.19 ± 0.23 | activity coefficient (343.15 K): 2.15 ± 0.23 | activity coefficient (353.15 K): 2.09 ± 0.22

Cc1ccccc1C [1,2-dimethylbenzene] + CCCCCCn1cc[n+](C)c1C.O=S(=O)([N-]S(=O)(=O)C(F)(F)F)C(F)(F)F
activity coefficient (313.15 K): 1.17 ± 0.12 | activity coefficient (323.15 K): 1.19 ± 0.12 | activity coefficient (333.15 K): 1.21 ± 0.12 | activity coefficient (343.15 K): 1.22 ± 0.13 | activity coefficient (353.15 K): 1.24 ± 0.13

CC(C)=O [acetone] + CCCCCCn1cc[n+](C)c1C.O=S(=O)([N-]S(=O)(=O)C(F)(F)F)C(F)(F)F
activity coefficient (313.15 K): 0.4 ± 0.05 | activity coefficient (323.15 K): 0.42 ± 0.05 | activity coefficient (333.15 K): 0.43 ± 0.05 | activity coefficient (343.15 K): 0.45 ± 0.05 | activity coefficient (353.15 K): 0.46 ± 0.05

CC1CCCCC1 [methylcyclohexane] + CCCCCCn1cc[n+](C)c1C.O=S(=O)([N-]S(=O)(=O)C(F)(F)F)C(F)(F)F
activity coefficient (313.15 K): 6.48 ± 0.68 | activity coefficient (323.15 K): 6.26 ± 0.66 | activity coefficient (333.15 K): 6.06 ± 0.64 | activity coefficient (343.15 K): 5.81 ± 0.61 | activity coefficient (353.15 K): 5.62 ± 0.59

ClC(Cl)Cl [trichloromethane] + CCCCCCn1cc[n+](C)c1C.O=S(=O)([N-]S(=O)(=O)C(F)(F)F)C(F)(F)F
activity coefficient (313.15 K): 0.77 ± 0.08 | activity coefficient (323.15 K): 0.78 ± 0.08 | activity coefficient (333.15 K): 0.79 ± 0.08 | activity coefficient (343.15 K): 0.81 ± 0.08 | activity coefficient (353.15 K): 0.82 ± 0.08

C1CCOC1 [tetrahydrofuran] + CCCCCCn1cc[n+](C)c1C.O=S(=O)([N-]S(=O)(=O)C(F)(F)F)C(F)(F)F
activity coefficient (313.15 K): 0.5 ± 0.06 | activity coefficient (323.15 K): 0.51 ± 0.06 | activity coefficient (333.15 K): 0.53 ± 0.06 | activity coefficient (343.15 K): 0.55 ± 0.06 | activity coefficient (353.15 K): 0.58 ± 0.06

CCCCCC [hexane] + CCCCCCn1cc[n+](C)c1C.O=S(=O)([N-]S(=O)(=O)C(F)(F)F)C(F)(F)F
activity coefficient (313.15 K): 7.6 ± 0.8 | activity coefficient (323.15 K): 7.41 ± 0.78 | activity coefficient (333.15 K): 7.16 ± 0.75 | activity coefficient (343.15 K): 6.96 ± 0.73 | activity coefficient (353.15 K): 6.78 ± 0.71

CCCCC [pentane] + CCCCCCn1cc[n+](C)c1C.O=S(=O)([N-]S(=O)(=O)C(F)(F)F)C(F)(F)F
activity coefficient (313.15 K): 5.64 ± 0.59 | activity coefficient (323.15 K): 5.55 ± 0.58 | activity coefficient (333.15 K): 5.45 ± 0.57 | activity coefficient (343.15 K): 5.33 ± 0.56 | activity coefficient (353.15 K): 5.21 ± 0.55

CCCCCCCCC [nonane] + CCCCCCn1cc[n+](C)c1C.O=S(=O)([N-]S(=O)(=O)C(F)(F)F)C(F)(F)F
activity coefficient (313.15 K): 21.5 ± 2.3 | activity coefficient (323.15 K): 19.8 ± 2.1 | activity coefficient (333.15 K): 18.1 ± 1.9 | activity coefficient (343.15 K): 16.6 ± 1.7 | activity coefficient (353.15 K): 15.1 ± 1.6

Cc1ccc(C)cc1 [1,4-dimethylbenzene] + CCCCCCn1cc[n+](C)c1C.O=S(=O)([N-]S(=O)(=O)C(F)(F)F)C(F)(F)F
activity coefficient (313.15 K): 1.39 ± 0.14 | activity coefficient (323.15 K): 1.42 ± 0.15 | activity coefficient (333.15 K): 1.46 ± 0.15 | activity coefficient (343.15 K): 1.5 ± 0.16 | activity coefficient (353.15 K): 1.55 ± 0.16

Cc1ccccc1 [toluene] + CCCCCCn1cc[n+](C)c1C.O=S(=O)([N-]S(=O)(=O)C(F)(F)F)C(F)(F)F
activity coefficient (313.15 K): 0.96 ± 0.1 | activity coefficient (323.15 K): 0.99 ± 0.1 | activity coefficient (333.15 K): 1.01 ± 0.1 | activity coefficient (343.15 K): 1.03 ± 0.1 | activity coefficient (353.15 K): 1.05 ± 0.11

C1CCCCC1 [cyclohexane] + CCCCCCn1cc[n+](C)c1C.O=S(=O)([N-]S(=O)(=O)C(F)(F)F)C(F)(F)F
activity coefficient (313.15 K): 5.33 ± 0.56 | activity coefficient (323.15 K): 5.14 ± 0.54 | activity coefficient (333.15 K): 4.99 ± 0.52 | activity coefficient (343.15 K): 4.88 ± 0.51 | activity coefficient (353.15 K): 4.74 ± 0.5

CCCCCCCCCC [decane] + CCCCCCn1cc[n+](C)c1C.O=S(=O)([N-]S(=O)(=O)C(F)(F)F)C(F)(F)F
activity coefficient (313.15 K): 26.8 ± 2.8 | activity coefficient (323.15 K): 25 ± 2.6 | activity coefficient (333.15 K): 23.3 ± 2.5 | activity coefficient (343.15 K): 21.6 ± 2.3 | activity coefficient (353.15 K): 20.1 ± 2.1

c1ccccc1 [benzene] + CCCCCCn1cc[n+](C)c1C.O=S(=O)([N-]S(=O)(=O)C(F)(F)F)C(F)(F)F
activity coefficient (313.15 K): 0.72 ± 0.08 | activity coefficient (323.15 K): 0.72 ± 0.08 | activity coefficient (333.15 K): 0.74 ± 0.08 | activity coefficient (343.15 K): 0.75 ± 0.08 | activity coefficient (353.15 K): 0.76 ± 0.08

CCOC(C)=O [ethyl acetate] + CCCCCCn1cc[n+](C)c1C.O=S(=O)([N-]S(=O)(=O)C(F)(F)F)C(F)(F)F
activity coefficient (313.15 K): 0.83 ± 0.09 | activity coefficient (323.15 K): 0.86 ± 0.09 | activity coefficient (333.15 K): 0.88 ± 0.09 | activity coefficient (343.15 K): 0.91 ± 0.09 | activity coefficient (353.15 K): 0.93 ± 0.09

CCc1ccccc1 [ethylbenzene] + CCCCCCn1cc[n+](C)c1C.O=S(=O)([N-]S(=O)(=O)C(F)(F)F)C(F)(F)F
activity coefficient (313.15 K): 1.34 ± 0.14 | activity coefficient (323.15 K): 1.36 ± 0.14 | activity coefficient (333.15 K): 1.38 ± 0.14 | activity coefficient (343.15 K): 1.4 ± 0.14 | activity coefficient (353.15 K): 1.42 ± 0.15

C1=CCCCC1 [cyclohexene] + CCCCCCn1cc[n+](C)c1C.O=S(=O)([N-]S(=O)(=O)C(F)(F)F)C(F)(F)F
activity coefficient (313.15 K): 3.36 ± 0.35 | activity coefficient (323.15 K): 3.29 ± 0.35 | activity coefficient (333.15 K): 3.19 ± 0.34 | activity coefficient (343.15 K): 3.06 ± 0.32 | activity coefficient (353.15 K): 2.93 ± 0.31

CCCCCCCC [octane] + CCCCCCn1cc[n+](C)c1C.O=S(=O)([N-]S(=O)(=O)C(F)(F)F)C(F)(F)F
activity coefficient (313.15 K): 12.8 ± 1.4 | activity coefficient (323.15 K): 11.7 ± 1.2 | activity coefficient (333.15 K): 10.6 ± 1.1 | activity coefficient (343.15 K): 9.82 ± 1 | activity coefficient (353.15 K): 9.16 ± 0.96

CC#N [acetonitrile] + CCCCCCn1cc[n+](C)c1C.O=S(=O)([N-]S(=O)(=O)C(F)(F)F)C(F)(F)F
activity coefficient (313.15 K): 0.45 ± 0.05 | activity coefficient (323.15 K): 0.46 ± 0.05 | activity coefficient (333.15 K): 0.47 ± 0.05 | activity coefficient (343.15 K): 0.48 ± 0.05 | activity coefficient (353.15 K): 0.48 ± 0.05
